How the values were obtained:
[1] = test system: MCF-7 cells; test: MTT cell viability assay, MCF-7; assay type: cell-based, human; conditions: IC50 ± SD
Procedure: (§1) To evaluate the effects of the newly synthesized tetrahydroquinolin-2(1H)-one derivatives on cell viability, we treated human colon cancer cells HCT-116, human breast cancer cells MCF-7, and human non-small cell lung cancer cells A-549 with different concentrations of the compounds for 72 h. After incubation, the MTT (3-(4,5-dimethylthiazol-2-yl)-2,5-diphenyltetrazolium bromide) assay was performed and the cytotoxic potency of compounds (expressed in IC50) on the cells was determined in comparison to control cells treated with 1% of dimethyl sulfoxide (DMSO) (Table 1). […] We also compared the activity of 20d and 19b to the reference control drug Cisplatin, which is widely used in chemotherapy.
(§2) A-549 (CCL-185) and MCF-7 ([…]) cells were cultured in RPMI-1640 medium, while HCT-116 (CVCL-427), (hMLH1)-deficient (MMR^–) and hMLH1-proficient (MMR^+) RKO cells were cultured in McCoy’s 5A medium. The culture media were supplemented with 10% fetal bovine serum, 2 mM L-glutamine, and antibiotics (penicillin 62.6 µg/ml and streptomycin 40 µg/ml). Cultivation of cell lines was carried out at 37 °C under a humidified atmosphere containing 5% CO2, and the cultures were routinely screened for Mycoplasma contamination. A-549, MCF-7, and HCT-116 cells were obtained from American Type Culture Collection (ATCC), while RKO colon carcinoma cells were a kind gift of Dr Timothy Kinsella (Brown University, USA).
(§3) The viability of cells was determined in response to the newly synthesized compounds using the MTT (Sigma-Aldrich) assay. Briefly, cells were seeded into 96-well plates and allowed to attach overnight. Then, cells were exposed to various concentrations of compounds for 24, 48 or 72 h. Negative controls were treated with the same amount of DMSO solvent (1%). After treatment, the MTT solution (0.4 mg/ml) was added to each well and allowed to react with cells for 2–3 h at 37 °C. Next, the medium was removed, the formazan product formed was dissolved in 100 μl of DMSO, and the absorbance was determined at 540 nm using an ASYS UVM340 microplate reader (Biochrom Ltd.). The IC50 value, which represents the concentration of the compound required to inhibit cell growth by 50% compared to vehicle, was calculated using GraphPad Prism 8 software based on the curves plotting survival against dose averaged from at least three independent experiments.

[2] = test system: HEK293 cells; test: MTT cell viability assay, HEK293; assay type: cell-based, human
[3] = test system: HCT-116 cells; test: MTT cell viability assay, HCT-116; assay type: cell-based, human; conditions: 72 h; for cytotoxicity on tested cell lines: HCT-116, MCF-7, A-549, concentrations up to 50 µM; for IC50: MTT, IC50 ± SD
Procedure: as §1, §2, §3

[4] = test system: A-549 cells; test: MTT cell viability assay, A-549; assay type: cell-based, human; conditions: MTT, 72 h, IC50 ± SD
Procedure: as §1, §2, §3

[5] = Homo sapiens, HEK293, IC50 ± SD

IC50 ([1]; Homo sapiens, MCF7, 72 h) [µM] | IC50 ([3]; Homo sapiens, HCT-116, 72 h) [µM] | melting point [°C] | IC50 ([4]; Homo sapiens, A549) [µM] | IC50 [3] [µM] | SMILES | IC50 [2, 5] [µM] | cytotoxicity on tested cell lines [3] | IC50 ([1]; 72 h) [µM] | IC50 ([2]; IC50 ± SD) [µM] | IC50 [4] [µM]
> 50 | > 50 | 182 to 184 | > 50 |  | O=C1CCCc2c(-c3ccccc3)cc(=O)[nH]c21 [Compound 23, 4-phenyl-1,5,6,7-tetrahydroquinoline-2,8-dione] | > 50 | no cytotoxicity |  |  | 
> 50 | > 50 | 61 to 63 | > 50 |  | COc1cc(-c2ccccc2)c2c(n1)C(O)CCC2 (stereo not shown) [Compound 17, 2-methoxy-4-phenyl-5,6,7,8-tetrahydroquinolin-8-ol] | > 50 | no cytotoxicity |  |  | 
> 50 | > 50 | 135 to 137 | > 50 |  | O=C1CCCc2c(-c3ccccc3)cc(Cl)nc21 [Compound 21, 2-chloro-4-phenyl-6,7-dihydro-5H-quinolin-8-one] | > 50 | no cytotoxicity |  |  | 
> 50 | 39.8 ± 2.62 | 148 to 150 | 27.2 ± 1.53 |  | O=C(Nc1ccccc1)OC1CCCc2c(-c3ccccc3)cc(Cl)nc21 (stereo not shown) [Compound 18a, (2-chloro-4-phenyl-5,6,7,8-tetrahydroquinolin-8-yl) N-phenylcarbamate] | > 50 |  |  |  | 
> 50 | > 50 |  | 45.3 ± 4.2 |  | O=C(Nc1ccc(Cl)cc1)OC1CCCc2c(-c3ccccc3)cc(Cl)nc21 (stereo not shown) [Compound 18e, (2-chloro-4-phenyl-5,6,7,8-tetrahydroquinolin-8-yl) N-(4-chlorophenyl)carbamate] | > 50 |  |  |  | 
> 50 | ~13 | 144 to 146 | 21.8 ± 0.22 | 13.1 ± 1.55 | O=C(Nc1ccccc1)OC1CCCc2c(-c3ccccc3)cc(=O)[nH]c21 (stereo not shown) [Compound 20a, (2-oxo-4-phenyl-5,6,7,8-tetrahydroquinolin-8-yl) N-phenylcarbamate] | > 50 |  |  |  | 
> 50 | ~13 | 144 to 146 | > 50 | 13.9 ± 1.3 | COc1cc(-c2ccccc2)c2c(n1)C(OC(=O)Nc1ccc(Cl)cc1)CCC2 (stereo not shown) [Compound 19e, (2-methoxy-4-phenyl-5,6,7,8-tetrahydroquinolin-8-yl) N-(4-chlorophenyl)carbamate] | > 50 |  |  |  | 
> 50 | > 50 |  | > 50 |  | O=C(Nc1ccc([N+](=O)[O-])cc1)OC1CCCc2c(-c3ccccc3)cc(Cl)nc21 (stereo not shown) [Compound 18b, (2-chloro-4-phenyl-5,6,7,8-tetrahydroquinolin-8-yl) N-(4-nitrophenyl)carbamate] | > 50 | no cytotoxicity |  |  | 
> 50 | > 50 | 104 to 106 | > 50 |  | O=c1cc(-c2ccccc2)c2c([nH]1)C(O)CCC2 (stereo not shown) [Compound 24, 8-hydroxy-4-phenyl-5,6,7,8-tetrahydro-1H-quinolin-2-one] | > 50 | no cytotoxicity |  |  | 
> 50 | > 50 |  | > 50 |  | O=c1cc(-c2ccccc2)c2c([nH]1)CCCC2 [Compound 9, 4-phenyl-5,6,7,8-tetrahydro-1H-quinolin-2-one] | > 50 | no cytotoxicity |  |  | 
> 50 | > 50 | 127 to 129 | > 50 |  | COc1cc(-c2ccccc2)c2c(n1)C(=O)CCC2 [Compound 22, 2-methoxy-4-phenyl-6,7-dihydro-5H-quinolin-8-one] | > 50 | no cytotoxicity |  |  | 
> 50 | > 50 | 88 to 90 | > 50 |  | OC1CCCc2c(-c3ccccc3)cc(Cl)nc21 (stereo not shown) [Compound 16, 2-chloro-4-phenyl-5,6,7,8-tetrahydroquinolin-8-ol] | > 50 | no cytotoxicity |  |  | 
> 50 | 26.2 ± 1.69 |  | > 50 |  | COc1cc(-c2ccccc2)c2c(n1)C(OC(=O)Nc1ccccc1)CCC2 (stereo not shown) [Compound 19a, (2-methoxy-4-phenyl-5,6,7,8-tetrahydroquinolin-8-yl) N-phenylcarbamate] | > 50 |  |  |  | 
> 50 | ~13 | 125 to 127 | 28.4 ± 0.56 | 13 ± 2.68 | COc1cc(-c2ccccc2)c2c(n1)C(OC(=O)Nc1ccc(F)cc1)CCC2 (stereo not shown) [Compound 19c, (2-methoxy-4-phenyl-5,6,7,8-tetrahydroquinolin-8-yl) N-(4-fluorophenyl)carbamate] | > 50 |  |  |  | 
> 50 | 18.9 ± 1.26 | 113 to 115 | 23.8 ± 4.02 |  | O=C(Nc1ccc(F)cc1)OC1CCCc2c(-c3ccccc3)cc(Cl)nc21 (stereo not shown) [Compound 18c, (2-chloro-4-phenyl-5,6,7,8-tetrahydroquinolin-8-yl) N-(4-fluorophenyl)carbamate] | > 50 |  |  |  | 
> 50 | > 50 |  | > 50 |  | O=C(Nc1ccc(Cl)cc1)OC1CCCc2c(-c3ccccc3)cc(=O)[nH]c21 (stereo not shown) [Compound 20e, (2-oxo-4-phenyl-5,6,7,8-tetrahydroquinolin-8-yl) N-(4-chlorophenyl)carbamate] | > 50 | no cytotoxicity |  |  | 
> 50 | 31.6 ± 0.58 |  | 41.1 ± 0.93 |  | COc1cc(-c2ccccc2)c2c(n1)C(OC(=O)Nc1cccc(F)c1)CCC2 (stereo not shown) [Compound 19d, (2-methoxy-4-phenyl-5,6,7,8-tetrahydroquinolin-8-yl) N-(3-fluorophenyl)carbamate] | > 50 |  |  |  | 
> 50 | > 50 | 225 to 227 | > 50 |  | O=C(Nc1ccc([N+](=O)[O-])cc1)OC1CCCc2c(-c3ccccc3)cc(=O)[nH]c21 (stereo not shown) [Compound 20b, (2-oxo-4-phenyl-5,6,7,8-tetrahydroquinolin-8-yl) N-(4-nitrophenyl)carbamate] | > 50 |  |  |  | 
> 50 | > 50 |  | > 50 |  | O=C(Nc1cccc(F)c1)OC1CCCc2c(-c3ccccc3)cc(Cl)nc21 (stereo not shown) [Compound 18d, (2-chloro-4-phenyl-5,6,7,8-tetrahydroquinolin-8-yl) N-(3-fluorophenyl)carbamate] | > 50 | no cytotoxicity |  |  | 
> 50 | 18.4 ± 2.04 |  | 23.8 ± 4.02 |  | O=C(Nc1ccc(F)cc1)OC1CCCc2c(-c3ccccc3)cc(=O)[nH]c21 (stereo not shown) [Compound 20c, (2-oxo-4-phenyl-5,6,7,8-tetrahydroquinolin-8-yl) N-(4-fluorophenyl)carbamate] | > 50 |  |  |  | 

SMILES | IC50 ([1]; Homo sapiens, MCF7, 72 h) [µM] | IC50 ([3]; Homo sapiens, HCT-116, 72 h) [µM] | melting point [°C] | IC50 ([4]; Homo sapiens, A549) [µM] | IC50 [3] [µM] | IC50 [2, 5] [µM] | cytotoxicity on tested cell lines [3] | IC50 ([1]; 72 h) [µM] | IC50 ([2]; IC50 ± SD) [µM] | IC50 [4] [µM]
N.N.[Cl][Pt][Cl] [Cisplatin, reference compound] |  |  |  |  | 24.9 ± 1.14 |  |  | 33.8 ± 1.56 | 28.4 ± 1.97 | 29.01 ± 0.12

Source: publication PMC9200803, “Design, synthesis, and biological evaluation of tetrahydroquinolinones and tetrahydroquinolines with anticancer activity” (Scientific Reports, 2022)
